From patent publication US10179770B2, “Quinolines derivatives as novel anticancer agents” (GENOSCIENCE PHARMA, priority 2013, dated 2019)
Where a name gives a salt, the structure may show the parent alone. Read-outs that look alike come from different tables or passages of the source.

What was measured:
Experiment in all cases: Cell proliferation assay at 10 μM
A375 = assay type: cell-based, human; conditions: for viability at 10 µM: Homo sapiens, read-out: Cell viability observed at 10 μM
Protocol: (§1) The human melanoma cell line A375 and colorectal carcinoma cell line HCT-116 were cultured in Dulbecco's modified Eagle's medium supplemented with 10% fetal bovine serum and 1% Penicillin-Streptomycin. The human leukemia cell line MOLM-14 was cultured in Minimum Essential Medium Alpha Medium supplemented with 10% Fetal Bovine Serum and 1% Penicillin-Streptomycin. All the cell lines were maintained at 37° C. with 5% CO2.
(§2) Briefly, adherent cells, A375 and HCT-116 cells were respectively plated at 800 or 5,000 cells per well onto 96-well plates in 90 μL of media per well and were allowed to grow overnight before the assay.
(§3) Compounds were added at different concentrations to each well, and cell cultures were incubated for 72 h. Vehicle (DMSO or H2O) was used as a control, and all compounds were tested in a constant percentage of vehicle. Cell outgrowth was measured using for adherent cells CellTiter […] Aqueous One Solution Cell Proliferation Assay (Promega) and for cell suspension, Sulforhodamine B colorimetric assay as described in Vichai et al. (Vichai, V. and Kirtikara, K. Nat. Protoc. 2006 (1) 1112-1116). Absorbance was measured using an Infinite F200 Pro or Sunrise TECAN plate reader.
(§4) In each experiment, each point represents the average of two replicates in cell culture.
(§5) Results are presented in Table 1 below for concentrations of 10 μM of tested compounds.

HCT-116 = assay type: cell-based; conditions: Homo sapiens, HCT-116, 72 h, read-out: Cell viability observed at 10 μM
Protocol: as §1, §2, §3, §4, §5

MOLM-14 = assay type: cell-based, human; conditions: for viability at 10 µM: Homo sapiens, read-out: Cell viability observed at 10 μM
Protocol: as §1
For MOLM-14 cell line, which grows in suspension, 30,000 cells were plated onto 96-well plates immediately before the assay.
as §3, §4, §5

[1] = A-375, A375, 10 μM, 72 h, % of cell viability remaining
[2] = HCT-116, 10 μM, 72 h, % of cell viability remaining
[3] = MOLM-14, 10 μM, 72 h, % of cell viability remaining
[4] = A375, 10 μM, 72 h, % of cell viability remaining

Row | Compound | viability at 10 µM (A375; [1]) | viability at 10 µM (HCT-116; [2]) | viability at 10 µM (MOLM-14; [3]) | Cell viability observed at 10 μM (A375; [4]) | Cell viability observed at 10 μM (MOLM-14; [3]) | viability at 10 µM (A375; A-375, 72 h) | viability at 10 µM (HCT-116) | viability at 10 µM (MOLM-14; MOLM-14, 72 h)
1 | CCN(CC)C1CCN(c2cc(-c3ccccc3)nc3ccccc23)CC1 [Compound I-3, 2-phenyl-4-(4-N,N-diethylamino-piperidin-1-yl)quinoline] | > 80% | > 80% | 60 to 80% |  |  |  |  | 
2 | CCN(CC)C1CCN(c2cc(-c3ccccc3)nc3ccccc23)CC1.Cl.Cl [Compound I-4, 2-phenyl-4-(4-N,N-diethylamino-piperidin-1-yl)quinoline dihydrochloride] |  |  |  | − (cell viability %>80) | + (cell viability 60>%<80) |  |  | 
3 | c1ccc(-c2cc(N3CCC(N4CCOCC4)CC3)c3ccccc3n2)cc1 [Compound V-2, 2-phenyl-4-[(4-morpholin-4-yl)piperidin-1yl]quinoline dihydrochloride] |  |  |  |  |  | > 80% | > 80% | 60 to 80%
4 | CCN(CC)C1CCN(c2cc(-c3ccc(Cl)cc3)nc3ccccc23)CC1 [Compound X-6, 2-(4-chloro-phenyl)-4-(4-N,N-diethylamino-piperidin-1-yl)quinoline dihydrochloride] |  |  |  |  |  | < 20% | < 20% | 40 to 60%
5 | CCN(CC)C1CCN(c2cc(-c3ccccc3)nc3cc(Cl)ccc23)CC1 [II-4, 7-chloro-2-phenyl-4-(4-N,N-diethylamino-piperidin-1-yl)quinoline dihydrochloride] |  |  |  |  |  | < 20% | 20 to 40% | 60 to 80%
6 | c1ccc(-c2cc(N3CCC(N4CCCCC4)CC3)c3ccccc3n2)cc1 [III-4, 2-phenyl-4-([1,4′]-bipiperidin-1′-yl)quinoline dihydrochloride] |  |  |  |  |  | > 80% | > 80% | 60 to 80%
7 | CC(C)(C)NC1CCN(c2cc(-c3ccccc3)nc3ccccc23)CC1 [IV-2, 2-phenyl-4-(4-N-tert-butylamino-piperidin-1-yl)quinoline dihydrochloride] |  |  |  |  |  | 40 to 60% | 60 to 80% | 20 to 40%
8 | CCN(CC)C1CCN(c2cc(-c3ccc4ccccc4c3)nc3ccccc23)CC1 [VI-6, 2-(2-naphtyl)-4-(4-N,N-diethylamino-piperidin-1-yl)quinoline dihydrochloride] |  |  |  |  |  | < 20% | < 20% | < 20%
9 | CCN(CC)C1CCN(c2cc(-c3ccc(Br)cc3)nc3ccccc23)CC1 [VIII-6, 2-(4-bromo-phenyl)-4-(4-N,N-diethylamino-piperidin-1-yl)-quinoline dihydrochloride] |  | < 20% |  |  |  | < 20% |  | 20 to 40%
10 | CN(C)CCCNc1cc(-c2ccccc2)nc2ccccc12.Cl.Cl [XLI-2, N^1,N^1-dimethyl-N^3-(2-phenylquinoline-4-yl)propane-1,3-diamine hydrochloride salt] |  |  |  | ++++ (cell viability %<20) | ++++ (cell viability %<20) |  |  | 
11 | CN(C)CCCNC(=O)c1cc(-c2ccccc2)nc2cc(Cl)ccc12 [XLIII-2, N-[3-(dimethylamino)propyl]-7-chloro-2-phenylquinoline-4-carboxamide hydrochloride salt] |  |  |  |  |  | < 20% | > 80% | 60 to 80%
12 | CN(C)CCCNCc1cc(-c2ccccc2)nc2cc(Cl)ccc12 [XLIV-2, N^1,N^1-dimethyl-N^3-(7-chloro-2-phenylquinoline-4-ylmethyl)-propane-1,3-diamine hydrochloride salt] |  |  |  |  |  | < 20% | < 20% | < 20%
13 | CCN(CC)C1CCN(C(=O)c2cc(-c3ccccc3)nc3ccccc23)CC1 [XVIII-2, 4-[4-(N,N-diethylamino)piperidin-1-ylcarbonyl]-2-phenyl-quinoline dihydrochloride] | > 80% | > 80% | > 80% |  |  |  |  | 
